From US9079913B2, “Spiro-oxindole MDM2 antagonists” (The Regents of the University of Michigan, priority 2009, dated 2015)
Entries after “also recorded” stand apart in the source; their conditions may differ. Like-named read-outs stand apart in the source and are kept apart here.

Key:
[1] = In vitro microsomal stability, human; assay type: in vitro ADME
[2] = In vitro microsomal stability, rat; assay type: in vitro ADME
[3] = Animal weight in SJSA-1 xenograft studies; assay type: in vivo, C.B-17 SCID mice; conditions: SJSA-1 xenograft mice
Procedure: The size of tumors growing in the mice was measured in two dimensions using calipers. Tumor volume (mm^3)=(A×B2)/2 where A and B are the tumor length and width (in mm), respectively. During treatment, tumor volume and body weight was measured three times a week. After the treatment was stopped, tumor volume (FIGS. 7, 9, 11, and 36) and body weight (FIGS. 8, 10, 12, and 37) was measured at least once a week. Mice were kept for an additional 60 days for further observation of tumor growth and toxicity.
Before treatment began, tumors were allowed to grow to 60-140 mm^3 in volume, at which point the blood vessel supplies to the tumor should have been established. Mice with tumors within acceptable size range were randomized into treatment groups of 8 mice for experimental compounds and 10 mice for the Control group. Experimental compounds were given orally, once per day for 2-3 weeks. The Control group received vehicle alone (10% PEG 400: 3% Cremophor: 87% PBS).

SJSA-1 xenograft tumors = test: In vivo efficacy, SJSA-1 xenograft model (tumor volume); design: species or system C.B-17 SCID mice; conditions: for % Tumor Growth Inhib. T/C Control 750 mm^3 D24: Exp. No. 2, SJSA-1 xenograft; for % Tumor Growth Inhib. T/C Control 750 mm^3 D29: Exp. No. 3, SJSA-1 xenograft
Procedure: SJSA-1 tumor cells were harvested with Trypsin (0.05%)-EDTA (0.53 mM) (GIBCO™, Invitrogen Corp.), growth medium added and cells placed on ice. A cell sample was mixed 1:1 with Trypan Blue (GIBCO™, Invitrogen Corp.) and counted on a hemocytometer to determine the number of live/dead cells. Cells were washed once with 1×PBS (GIBCO™, Invitrogen Corp.) and resuspended in PBS. For Matrigel injections, after washing in PBS, cells are resuspended in an ice cold mixture of 1:1 PBS and Matrigel (BD Biosciences, Invitrogen Corp.) for a final Matrigel protein concentration of 5 mg/ml. SJSA-1 tumors were inoculated into C.B-17 SCID mice at 5×10^6 cells in 0.1 ml with Matrigel. Cells were injected s.c. into the flank region of each mouse using a 27 gauge needle.
The size of tumors growing in the mice was measured in two dimensions using calipers. Tumor volume (mm^3)=(A×B2)/2 where A and B are the tumor length and width (in mm), respectively. During treatment, tumor volume and body weight was measured three times a week. […] Mice were kept for an additional 60 days for further observation of tumor growth and toxicity.

[4] = system: Isogenic HCT-116 colon cancer cell lines; test: cells; assay type: cell-based; conditions: Homo sapiens;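 note: cells grown in 96-well plates in McCoy's 5A medium with 10% FBS, exposed to compound for 4 days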
Procedure: Cells were seeded in 96-well flat bottom cell culture plates at a density of 2−3×10^3 cells/well with compounds and incubated for 4 days.

[5] = system: cancer cell lines with wild-type p53 / mutated or deleted p53 (ATCC); test: Cell growth assay (WST-8), other cancer cell lines; assay type: cell-based; conditions: Homo sapiens
[6] = Pharmacokinetic studies in rats; assay type: in vivo, rat
Procedure: Pharmacokinetic studies on MDM2 inhibitors were carried out in rat. For comparison, the MDM2 inhibitor, AT-219, was also studied.

[7] = LNCaP, read-out: LNCAP (p53 wild-type) IC50
[8] = SJSA-1, read-out: SJSA-1 (p53 wild-type) IC50

CC(C)(C)C[C@H]1N[C@@H](C(=O)N[C@H]2C[C@@H](O)C2)[C@H](c2cccc(Cl)c2F)[C@@]12C(=O)Nc1cc(Cl)ccc12 (stereo in doubt) [MI-519-63]
% of compound remaining when incubated in human liver microsomes with NADPH ([1]; 0 min): 100.00%
% of compound remaining when incubated in human liver microsomes with NADPH ([1]; 5 min): 77.75%
% of compound remaining when incubated in human liver microsomes with NADPH ([1]; 10 min): 59.66%
% of compound remaining when incubated in human liver microsomes with NADPH ([1]; 15 min): 50.42%
% of compound remaining when incubated in human liver microsomes with NADPH ([1]; 30 min): 31.21%
% of compound remaining when incubated in human liver microsomes with NADPH ([1]; 45 min): 26.74%
% of compound remaining when incubated in human liver microsomes with NADPH ([1]; 60 min): 21.5%
microsomal stability (in words) ([1]; human liver microsomes): comparable microsomal stability to MI-219
% of compound remaining when incubated in rat liver microsomes with NADPH ([2]; 0 min): 100%
% of compound remaining when incubated in rat liver microsomes with NADPH ([2]; 5 min): 66.01%
% of compound remaining when incubated in rat liver microsomes with NADPH ([2]; 10 min): 53.79%
% of compound remaining when incubated in rat liver microsomes with NADPH ([2]; 15 min): 46.44%
% of compound remaining when incubated in rat liver microsomes with NADPH ([2]; 30 min): 29.41%
% of compound remaining when incubated in rat liver microsomes with NADPH ([2]; 45 min): 27.72%
% of compound remaining when incubated in rat liver microsomes with NADPH ([2]; 60 min): 23.28%
microsomal stability (in words) ([2]; rat liver microsomes): comparable microsomal stability to MI-219
weight loss in the animals (in words) [3]: without significant weight loss
% Tumor Growth Inhib. T/C Control 750 mm^3 D24 (SJSA-1 xenograft tumors; PO 100 mg/kg): 0.0%
IC50 ([4]; HCT-116, read-out: HCT-116 (p53 wild-type) IC50): 2000 nM
IC50 [5, 7]: 2300 nM
IC50 [5, 8]: 2100 nM

CC(C)(C)C[C@H]1N[C@@H](C(=O)NC2CCC(O)CC2)[C@H](c2cccc(Cl)c2F)[C@@]12C(=O)Nc1cc(Cl)ccc12 (stereo partly shown) [MI-773]
microsomal stability (in words) ([1]; human liver microsomes): more stable than MI-219
% of compound remaining when incubated in human liver microsomes with NADPH ([1]; human liver microsomes, NADPH, 0 min): 100.00%
% of compound remaining when incubated in human liver microsomes with NADPH ([1]; human liver microsomes, NADPH, 5 min): 83.70%
% of compound remaining when incubated in human liver microsomes with NADPH ([1]; human liver microsomes, NADPH, 10 min): 82.97%
% of compound remaining when incubated in human liver microsomes with NADPH ([1]; human liver microsomes, NADPH, 15 min): 69.38%
% of compound remaining when incubated in human liver microsomes with NADPH ([1]; human liver microsomes, NADPH, 30 min): 52.36%
% of compound remaining when incubated in human liver microsomes with NADPH ([1]; human liver microsomes, NADPH, 45 min): 42.57%
% of compound remaining when incubated in human liver microsomes with NADPH ([1]; human liver microsomes, NADPH, 60 min): 28.77%
half-life ([1]; human, liver microsomes, human liver microsomes with NADPH): 31.5 min
% of compound remaining when incubated in rat liver microsomes with NADPH ([2]; rat liver microsomes, NADPH, 0 min): 100.00%
% of compound remaining when incubated in rat liver microsomes with NADPH ([2]; rat liver microsomes, NADPH, 5 min): 81.32%
% of compound remaining when incubated in rat liver microsomes with NADPH ([2]; rat liver microsomes, NADPH, 10 min): 60.00%
% of compound remaining when incubated in rat liver microsomes with NADPH ([2]; rat liver microsomes, NADPH, 15 min): 56.58%
% of compound remaining when incubated in rat liver microsomes with NADPH ([2]; rat liver microsomes, NADPH, 30 min): 46.11%
% of compound remaining when incubated in rat liver microsomes with NADPH ([2]; rat liver microsomes, NADPH, 45 min): 41.18%
% of compound remaining when incubated in rat liver microsomes with NADPH ([2]; rat liver microsomes, NADPH, 60 min): 33.26%
half-life ([2]; rat, liver microsomes, rat liver microsomes with NADPH): 17.3 min
weight loss in the animals (in words) [3]: without significant weight loss
oral bioavailability / oral pharmacokinetics in rats (in words) ([6]; oral dosing, rats): good oral bioavailability; also recorded: high oral bioavailability
CLz ([6]; rat, IV, 5 mg/kg, plasma, parent compound): 1.0 L/h/kg
Vd ([6]; rat, plasma, iv, 5 mg/kg, rat, IV, 5 mg/kg, plasma, parent compound, read-out: Vz): 3 L/kg
pharmacokinetic profile (in words) ([6]; rats, intravenous and oral routes of dosing): improved PK parameters over MI-219
% Tumor Growth Inhib. T/C Control 750 mm^3 D24 (SJSA-1 xenograft tumors; PO 100 mg/kg): 3.2%
% Tumor Growth Inhib. T/C Control 750 mm^3 D29 (SJSA-1 xenograft tumors; PO 30 mg/kg): 24.3%
% Tumor Growth Inhib. T/C Control 750 mm^3 D29 (SJSA-1 xenograft tumors; PO 100 mg/kg): 1.2%
in vivo efficacy (in words) (SJSA-1 xenograft tumors; SJSA-1 xenograft, oral once per day 2-3 weeks): good in vivo efficacy
IC50 ([4]; HCT-116, read-out: HCT-116 (p53-/-) IC50, Table 19A, HCT-116 p53-/-, cell growth): > 10000 nM
IC50 ([4]; HCT-116, read-out: HCT-116 (p53 wild-type) IC50, Table 19A, HCT-116 p53 wild-type, cell growth): < 1000 nM
IC50 [5, 7]: < 1000 nM
IC50 ([5]; PC-3, read-out: PC-3 (deleted p53) IC50): > 10000 nM
IC50 [5, 8]: < 1000 nM
